Laboratory results as given in patent US9981916B2 (Genentech, Inc., priority 2013, dated 2018).

Molecular target: T1, RORc ligand binding domain (Homo sapiens, UniProt P51449)
T1 construct: host or cells: E. coli
T1 sequence (P51449 269-508 limits assumed): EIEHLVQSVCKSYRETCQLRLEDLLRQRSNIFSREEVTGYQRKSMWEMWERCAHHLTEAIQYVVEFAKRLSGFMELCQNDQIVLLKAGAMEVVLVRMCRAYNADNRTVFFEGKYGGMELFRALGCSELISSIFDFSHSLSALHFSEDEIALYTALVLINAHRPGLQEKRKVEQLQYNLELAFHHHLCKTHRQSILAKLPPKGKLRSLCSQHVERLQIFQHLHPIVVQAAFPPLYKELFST
Experiment: In vitro RORc ligand binding assay (25-[3H]hydroxycholesterol displacement, filter binding)
Settings: 6 nM 25-[3H]hydroxycholesterol, 0.6 ug/mL RORc receptor, 3 h at 25° C.
Description: Example 17: In Vitro RORc Ligand Binding Assay
This assay was used to determine a compound's potency in inhibiting activity of RORc by determining, Kiapp, IC50, or percent inhibition values.
On day of the assay, 100 uL of 0.05% CHAPS (in deionized H2O) was added to all wells of the GFB Unifilter plate and allowed soak for 1 h. A wash buffer of 50 mM HEPES (pH 7.4), 150 mM NaCl, and 5 mM MgCl2 was prepared to wash the filter plate. To prepare an assay buffer, BSA was added to the wash buffer to reach 0.01% and DTT was added to reach 1 mM.
For IC50 mode, 10 mM compound stocks were serially diluted in DMSO with DMSO to give 20× required final concentration in DMSO (15 uL compound+30 uL DMSO). The 20× compound stocks were diluted in DMSO with Assay Buffer 4-fold to reach 5× the final test concentration in 25% DMSO (10 uL compound+30 uL Assay Buffer). Solutions were mixed by aspiration several times with a pipette set on 50 uL volume. For the assay, 10 uL of 5× compound stock solutions in 25% DMSO were added to the assay plate in duplicate.
For two point screening, 10 mM stock compound solutions were diluted in DMSO to obtain 200 uM (20× the high test concentration) and then diluted 10-fold further to reach 20 uM (20× the low test concentration). The 20× stocks were diluted 4-fold with Assay Buffer (10 uL compound+30 uL Assay Buffer) to reach 5× the test concentrations (50 uM and 5 uM) and 10 uL were added to two assay plates for the duplicate wells. With each concentration tested on 2 plates, each set of 80 compounds used 4 assay plates (1 uM and 10 uM, with n=2).
25-hydroxycholesterol (1 uM) was used to determine the level of NSB signal is prepared in DMSO as for compounds above, then diluted in Assay Buffer to give a final concentration of 5 uM. For 25-hydroxycholesterol in 25% DMSO/75% Assay Buffer; 10 uL per well was used for NSB samples. Wells for Total Binding and No Receptor sample determination contained 10 uL of 25% DMSO/75% Assay Buffer per well.
25-[^3H]hydroxycholesterol was diluted in Assay Buffer to obtain 15 nM and vortex to mix. Add 20 uL to all wells to reach 6 nM final concentration in the assay.
Stock receptor solution was diluted in assay buffer to obtain 1.5 ug/mL in Assay Buffer. 20 uL was added to all wells. For No Receptor samples, 20 uL Assay Buffer was substituted for receptor solution.
Assay plates were 96-well polypropylene V-bottom plates. 10 uL of 5× compound in 25% DMSO/75% Assay Buffer was added to Test wells. 10 uL of 25% DMSO/75% Assay Buffer was added to Total Binding or No Receptor wells. 10 uL of 5 uM 25-hydroxycholesterol in 25% DMSO/75% Assay Buffer was added to NSB wells. 20 uL of 15 nM 25-[^3H]hydroxycholesterol prepared in Assay Buffer was added to all wells. 20 uL of 1.5 ug/mL RORc receptor was added to wells (or […] Assay Buffer to No R wells). Following addition to the wells, the plates were incubated 3 h at 25° C.
Using a Packard Filtermate Harvester, the filter plate were washed 4 times following transfer of the incubated samples. Plates were dry-filtered completely (2 h at 50° C. or overnight at room temperature). 50 uL Microscint 0 was added to all wells and read on Topcount protocol Inverted.
Final concentrations were as follows: 50 mM HEPES buffer (pH 7.4); 150 mM NaCl; 1 mM DTT; 5 mM MgCl2; 0.01% BSA; 5% DMSO; 0.6 ug/mL RORc receptor; 6 nM 25-[^3H]hydroxycholesterol. For NSB wells, 1 uM 25-hydroxycholesterol was also present.

SMILES | IC50
CC1(C)[C@@H]2CC[C@@]1(CN1CCNC1=O)c1nnc(-c3ccccc3F)cc12 [Example 34, 1-{[(5S,8R)-3-(2-fluorophenyl)-9,9-dimethyl-6,7-dihydro-5,8-methanocinnolin-8(5H)-yl]methyl}imidazolidin-2-one] | 245 nM
CC[C@]12CC[C@H](c3cc(-c4ccccc4F)nnc31)C2(C)C [Example 35, (5S,8R)-8-ethyl-3-(2-fluorophenyl)-9,9-dimethyl-5,6,7,8-tetrahydro-5,8-methanocinnoline] | 37 nM
CN(C)C(=O)C[C@]12CC[C@H](c3cc(-c4ccccc4F)nnc31)C2(C)C [Example 36, 2-[(5S,8S)-3-(2-fluorophenyl)-9,9-dimethyl-6,7-dihydro-5,8-methanocinnolin-8(5H)-yl]-N,N-dimethylacetamide] | 5170 nM
CNC(=O)C[C@]12CC[C@H](c3cc(-c4ccccc4F)nnc31)C2(C)C [Example 37, 2-[(5S,8S)-3-(2-fluorophenyl)-9,9-dimethyl-6,7-dihydro-5,8-methanocinnolin-8(5H)-yl]-N-methylacetamide] | 880 nM
CC(C)OC[C@]12CC[C@H](c3cc(-c4ccccc4F)nnc31)C2(C)C [Example 38, (5S,8S)-3-(2-fluorophenyl)-9,9-dimethyl-8-[(propan-2-yloxy)methyl]-5,6,7,8-tetrahydro-5,8-methanocinnoline] | 281 nM
Cc1nc(C[C@]23CC[C@H](c4cc(-c5ccccc5F)nnc42)C3(C)C)no1 [Example 39, (5S,8S)-3-(2-fluorophenyl)-9,9-dimethyl-8-[(5-methyl-1,2,4-oxadiazol-3-yl)methyl]-5,6,7,8-tetrahydro-5,8-methanocinnoline] | 1730 nM
COCC12CCC(c3cc(-c4ccccc4F)nnc31)C21CC1 (stereo not shown) [Example 40, 3′-(2-fluorophenyl)-8′-(methoxymethyl)-5′,6′,7′,8′-tetrahydro-spiro[cyclopropane-1,9′-[1,2]diaza[5,8]methanocinnoline]] | 350 nM
COCC[C@]12CC[C@H](c3cc(-c4ccccc4F)nnc31)C2(C)C [Example 41, (5S,8S)-3-(2-fluorophenyl)-8-(2-methoxyethyl)-9,9-dimethyl-5,6,7,8-tetrahydro-5,8-methanocinnoline] | 54 nM
Cc1noc(C[C@]23CC[C@H](c4cc(-c5ccccc5F)nnc42)C3(C)C)n1 [Example 42, (5S,8S)-3-(2-fluorophenyl)-9,9-dimethyl-8-[(3-methyl-yl)methyl]-5,6,7,8-tetrahydro-5,8-methanocinnoline] | 238 nM
CNC(=O)N(C)C[C@]12CC[C@H](c3cc(-c4ccccc4F)nnc31)C2(C)C [Example 43, 1-{[(5S,8R)-3-(2-fluorophenyl)-9,9-dimethyl-6,7-dihydro-5,8-methanocinnolin-8(5H)-yl]methyl}-1,3-dimethylurea] | 624 nM
Cc1ccn(C[C@]23CC[C@H](c4cc(-c5ccccc5F)nnc42)C3(C)C)n1 [Example 44, (5S,8R)-3-(2-fluorophenyl)-9,9-dimethyl-8-[(3-methyl-1H-pyrazol-1-yl)methyl]-5,6,7,8-tetrahydro-5,8-methanocinnoline] | 607 nM
CC1(C)[C@@H]2CC[C@@]1(Cc1noc(CO)n1)c1nnc(-c3ccccc3F)cc12 [Example 45, (3-{[(5S,8S)-3-(2-fluorophenyl)-9,9-dimethyl-6,7-dihydro-5,8-methanocinnolin-8(5H)-yl]methyl}-1,2,4-oxadiazol-5-yl)methanol] | 756 nM
CN1CCN(C[C@]23CC[C@H](c4cc(-c5ccccc5F)nnc42)C3(C)C)C1=O [Example 46, 1-{[(5S,8R)-3-(2-fluorophenyl)-9,9-dimethyl-6,7-dihydro-5,8-methanocinnolin-8(5H)-yl]methyl}-3-methylimidazolidin-2-one] | 1450 nM
Cc1cnn(C[C@]23CC[C@H](c4cc(-c5ccccc5F)nnc42)C3(C)C)c1 [Example 47, (5S,8R)-3-(2-fluorophenyl)-9,9-dimethyl-8-[(4-methyl-1H-pyrazol-1-yl)methyl]-5,6,7,8-tetrahydro-5,8-methanocinnoline] | 267 nM
CC1(C)[C@@H]2CC[C@@]1(CN1CCN(CCN3CCOCC3)C1=O)c1nnc(-c3ccccc3F)cc12 [Example 48, 1-{[(5S,8R)-3-(2-fluorophenyl)-9,9-dimethyl-6,7-dihydro-5,8-methanocinnolin-8(5H)-yl]methyl}-3-[2-(morpholin-4-yl)ethyl]imidazolidin-2-one] | 643 nM
CC1(C)[C@@H]2CC[C@@]1(C(=O)N1CCC1)c1nnc(-c3c(F)cccc3F)cc12 [Example 49, azetidin-1-yl[(5S,8S)-3-(2,6-difluorophenyl)-9,9-dimethyl-6,7-dihydro-5,8-methanocinnolin-8(5H)-yl]methanone] | 44 nM
CC1(C)[C@@H]2CC(=O)[C@@]1(C)c1nnc(-c3ccccc3F)cc12 [Example 50, (5S,8R)-3-(2-fluorophenyl)-8,9,9-trimethyl-5,8-dihydro-5,8-methanocinnolin-7(6H)-one] | 2420 nM
C=C1C[C@@H]2c3cc(-c4ccccc4F)nnc3[C@@]1(C)C2(C)C [Example 51, (5S,8R)-3-(2-fluorophenyl)-8,9,9-trimethyl-7-methylidene-5,6,7,8-tetrahydro-5,8-methanocinnoline] | 657 nM
CC1(C)[C@@H]2CC[C@@]1(C#N)c1nnc(-c3ccccc3F)cc12 [Example 52, (5S,8S)-3-(2-fluorophenyl)-9,9-dimethyl-6,7-dihydro-5,8-methanocinnoline-8(5H)-carbonitrile] | 1530 nM
CNC(=O)[C@]12CC[C@H](c3cc(-c4c(F)cccc4F)nnc31)C2(C)C [Example 53, (5S,8S)-3-(2,6-difluorophenyl)-N,9,9-trimethyl-6,7-dihydro-5,8-methanocinnoline-8(5H)-carboxamide] | 139 nM
CC1(C)[C@@H]2CC[C@@]1(C(=O)N1CCOCC1)c1nnc(-c3c(F)cccc3F)cc12 [Example 54, [(5S,8S)-3-(2,6-difluorophenyl)-9,9-dimethyl-6,7-dihydro-5,8-methanocinnolin-8(5H)-yl](morpholin-4-yl)methanone] | 42 nM
CON(C)C(=O)[C@]12CC[C@H](c3cc(-c4c(F)cccc4F)nnc31)C2(C)C [Example 55, (5S,8S)-3-(2,6-difluorophenyl)-N-methoxy-N,9,9-trimethyl-6,7-dihydro-5,8-methanocinnoline-8(5H)-carboxamide] | 124 nM
CC1(C)[C@H]2CC[C@]1(CN1CCOCC1)c1nnc(-c3c(F)cccc3F)cc12 [Example 56, (5R,8S)-3-(2,6-difluorophenyl)-9,9-dimethyl-8-(morpholin-4-ylmethyl)-5,6,7,8-tetrahydro-5,8-methanocinnoline] | 252 nM
CC1(C)[C@H]2CC[C@]1(Cc1ncon1)c1nnc(-c3c(F)cccc3F)cc12 [Example 57, (5R,8R)-3-(2,6-difluorophenyl)-9,9-dimethyl-8-(1,2,4-oxadiazol-3-ylmethyl)-5,6,7,8-tetrahydro-5,8-methanocinnoline] | 85 nM
CC1(C)[C@H]2CC[C@]1(Cc1noc(O)n1)c1nnc(-c3c(F)cccc3F)cc12 [Example 58, 3-{[(5R,8R)-3-(2,6-difluorophenyl)-9,9-dimethyl-6,7-dihydro-5,8-methanocinnolin-8(5H)-yl]methyl}-1,2,4-oxadiazol-5-ol] | 1050 nM
